According to ChEMBL document CHEMBL1127177, “(E) and (Z)5-fluoro olefin carbocyclic nucleosides: effect of olefin geometry on inhibition of s-adenosyl-l-homocysteine hydrolase” (Bioorg Med Chem Lett, 1993):

What was measured:
[1] = tested on: T-cell; assay: Tested for inhibition of T cell proliferation; format: functional, cell-based; conditions: Mus musculus
[2] = target: T1, Adenosylhomocysteinase (Rattus norvegicus, UniProt P10760); assay: Tested for binding affinity of compound against S-adenosyl-L-homocysteine hydrolase
T1 sequence (P10760 whole entry): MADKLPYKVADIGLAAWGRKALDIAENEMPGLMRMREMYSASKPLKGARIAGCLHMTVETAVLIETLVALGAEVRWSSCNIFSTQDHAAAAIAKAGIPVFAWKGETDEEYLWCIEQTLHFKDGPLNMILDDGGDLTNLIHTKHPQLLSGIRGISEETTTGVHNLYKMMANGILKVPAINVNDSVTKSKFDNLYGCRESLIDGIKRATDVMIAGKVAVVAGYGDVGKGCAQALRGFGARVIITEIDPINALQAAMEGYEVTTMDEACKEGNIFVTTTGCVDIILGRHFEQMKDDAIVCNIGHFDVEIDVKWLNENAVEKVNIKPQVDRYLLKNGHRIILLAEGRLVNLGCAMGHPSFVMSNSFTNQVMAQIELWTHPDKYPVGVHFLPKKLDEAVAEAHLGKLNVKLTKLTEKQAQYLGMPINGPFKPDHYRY

[3] = target: T2, Adenosylhomocysteinase (Rattus norvegicus) (UniProt P10760)
T2 sequence (whole entry): T1 sequence (P10760 whole entry)
Description: Tested for rate constant for inactivation of S-adenosyl-L-homocysteine hydrolase from rat

[4] = tested on: T-cell; assay: Inhibition of T cell proliferation was determined using murine splenic mononuclear cells; format: functional, cell-based; conditions: Mus musculus

Row | Ki [2] | K inact [3] | SMILES | IC50 [1] | IC50 [4]
1 | 6.9 µM | 0.18 min⁻¹ | Nc1ncnc2c1ncn2C1C/C(=C\F)C(O)C1O (stereo not given) | 0.8 µM | 
2 | 1.1 µM |  | Nc1ncnc2c1ncn2C1C/C(=C/F)C(O)C1O (stereo not given) |  | 6.7 µM
